Laboratory results: article PMC3959874 (European journal of dermatology : EJD, 2013)
Like-named read-outs stand apart in the source and are kept apart here.

Key:
Estrogen ERa = Estrogen ERa (Homo sapiens, UniProt P03372); test: Radioligand binding assay; settings: read-out: Percent inhibition of specific radioligand binding
[1] = system: GABAA, Flunitrazepam, Cent ral; test: Radioligand binding assay; design: species or system rat; settings: 10 μM; 25 °C, 120 min
Calcium Channel N-Type = Calcium Channel N-Type (Rattus norvegicus, UniProt Q02294); test: Radioligand binding assay; settings: read-out: Percent inhibition of specific radioligand binding
Glutamate, NMDA, Glycine = Glutamate, NMDA, Glycine (Rattus norvegicus, UniProt P35439); test: Radioligand binding assay; settings: read-out: Percent inhibition of specific radioligand binding
[2] = Serum drug concentration after topical skin application; settings: C57BL/6, mouse, serum
Neuropeptide Y Y2 = Neuropeptide Y Y2 (Homo sapiens, UniProt P49146); test: Radioligand binding assay; settings: read-out: Percent inhibition of specific radioligand binding
GABAA, Muscimol, Central = test: Radioligand binding assay; design: species or system rat; settings: 10 μM; 4 °C, 10 min
Dopamine D1 = Dopamine D1 (Homo sapiens, UniProt P21728); test: Radioligand binding assay; settings: read-out: Percent inhibition of specific radioligand binding
Bradykinin B1 = Bradykinin B1 (Homo sapiens, UniProt P46663); test: Radioligand binding assay; settings: read-out: Percent inhibition of specific radioligand binding
Transporter, GABA = Transporter, GABA (Rattus norvegicus, UniProt P23978); test: Radioligand binding assay; settings: read-out: Percent inhibition of specific radioligand binding
Purinergic P2x = test: Radioligand binding assay; design: species or system rabbit; settings: 10 μM; 25 °C, 30 min
Histamine H3 = Histamine H3 (Homo sapiens, UniProt Q9Y5N1); test: Radioligand binding assay; settings: read-out: Percent inhibition of specific radioligand binding
CYP2D6 = CYP2D6 (Homo sapiens, UniProt P10635); test: Cytochrome P450 enzyme assay; assay type: in vitro ADME; settings: human
human PBMC = settings: up to 1 μM; ref [24]; cited from earlier work
Glutamate, Kainate = test: Radioligand binding assay; design: species or system rat; settings: 10 μM; 4 °C, 60 min
[3] = system: Glutamate, NMDA, Phencyclidine; test: Radioligand binding assay; design: species or system rat; settings: 10 μM; 25 °C, 45 min
CYP1A2 = CYP1A2 (Homo sapiens, UniProt P05177); test: Cytochrome P450 enzyme assay; assay type: in vitro ADME; settings: human
[4] = target: Transporter, Norepinephrine (NET) (Homo sapiens, UniProt P23975); test: Radioligand binding assay; settings: read-out: Percent inhibition of specific radioligand binding
Thyroid Hormone = test: Radioligand binding assay; design: species or system rat; settings: 10 μM; 4 °C, 18 hrs
[5] = target: Leukotriene, Cysteinyl CysLT 1 (Homo sapiens, UniProt Q9Y271); test: Radioligand binding assay; settings: read-out: Percent inhibition of specific radioligand binding
Nicotinic Acetylcholine = test: Radioligand binding assay; design: species or system human; settings: 10 μM; 25 °C, 60 min
Dopamine D4.2 = Dopamine D4.2 (Homo sapiens, UniProt P21917, DEL265-296); test: Radioligand binding assay; settings: read-out: Percent inhibition of specific radioligand binding
Opiate 51 (OP1, DOP) = Opiate 51 (OP1, DOP) (Homo sapiens, UniProt P41143); test: Radioligand binding assay; settings: read-out: Percent inhibition of specific radioligand binding
Imidazoline I2, Central = test: Radioligand binding assay; design: species or system rat; settings: 10 μM; 25 °C, 30 min
hERG potassium channel = hERG potassium channel (Homo sapiens, UniProt Q12809); test: Radioligand binding assay; settings: human
CYP3A4 = CYP3A4 (Homo sapiens, UniProt P08684); test: Cytochrome P450 enzyme assay; assay type: in vitro ADME; settings: human
[6] = system: Calcium Channel L-Type, Benzothiazepine; test: Radioligand binding assay; design: species or system rat; settings: 10 μM; 4 °C, 180 min
CYP2C19 = CYP2C19 (Homo sapiens, UniProt P33261); test: Cytochrome P450 enzyme assay; assay type: in vitro ADME; settings: human
Potassium Channel [KATP] = test: Radioligand binding assay; design: species or system human; settings: 10 μM; 25 °C, 120 min
[7] = target: Platelet Activating Factor (PA F) (Homo sapiens, UniProt P25105); test: Radioligand binding assay; settings: read-out: Percent inhibition of specific radioligand binding
[8] = assay type: in vivo, mice; settings: for Body weight change after a single intravenous injection of the MTD: 150 mg/kg TMX-202 or 15 mg/kg IMQ i.v. (figure 4)
[9] = target: Epidermal Growth Factor (EG F) (Homo sapiens, UniProt P00533); test: Radioligand binding assay; settings: read-out: Percent inhibition of specific radioligand binding
Interleukin IL-1 = Interleukin IL-1 (Mus musculus, UniProt P13504); test: Radioligand binding assay; settings: read-out: Percent inhibition of specific radioligand binding
Bradykinin B2 = Bradykinin B2 (Homo sapiens, UniProt P30411); test: Radioligand binding assay; settings: read-out: Percent inhibition of specific radioligand binding
[10] = target: Nicotinic Acetylcholine a1, Bungarotoxin (Homo sapiens, UniProt P02708+P07510+Q07001); test: Radioligand binding assay; settings: read-out: Percent inhibition of specific radioligand binding
[11] = target: Serotonin (5-Hydroxytryptam ine) 5-HT1A (Homo sapiens, UniProt P08908); test: Radioligand binding assay; settings: read-out: Percent inhibition of specific radioligand binding
Glutamate, NMDA, Agonism = test: Radioligand binding assay; design: species or system rat; settings: 10 μM; 4 °C, 20 min
Adrenergic β1 = Adrenergic β1 (Homo sapiens, UniProt P08588); test: Radioligand binding assay; settings: read-out: Percent inhibition of specific radioligand binding
Prostanoid EP4 = Prostanoid EP4 (Homo sapiens, UniProt P35408); test: Radioligand binding assay; settings: read-out: Percent inhibition of specific radioligand binding
Phorbol Ester = test: Radioligand binding assay; design: species or system mouse; settings: 10 μM; 25 °C, 60 min
[12] = system: Calcium Channel L-Type, Dihydropyridine; test: Radioligand binding assay; design: species or system rat; settings: 10 μM; 25 °C, 90 min
[13] = target: Serotonin (5-Hydroxytryptam ine) 5-HT2B (Homo sapiens, UniProt P41595); test: Radioligand binding assay; settings: read-out: Percent inhibition of specific radioligand binding
Glucocorticoid = Glucocorticoid (Homo sapiens, UniProt P04150); test: Radioligand binding assay; settings: read-out: Percent inhibition of specific radioligand binding
CYP2C9 = CYP2C9 (Homo sapiens, UniProt P11712); test: Cytochrome P450 enzyme assay; assay type: in vitro ADME; settings: human
[14] = target: Androgen (Testosterone) AR (Rattus norvegicus, UniProt P15207); test: Radioligand binding assay; settings: read-out: Percent inhibition of specific radioligand binding
Muscarinic M2 = Muscarinic M2 (Homo sapiens, UniProt P08172); test: Radioligand binding assay; settings: read-out: Percent inhibition of specific radioligand binding
Endothelin ETB = Endothelin ETB (Homo sapiens, UniProt P24530); test: Radioligand binding assay; settings: read-out: Percent inhibition of specific radioligand binding
Purinergic P2, = test: Radioligand binding assay; design: species or system rat; settings: 10 μM; 25 °C, 60 min
Adenosine A1 = Adenosine A1 (Homo sapiens, UniProt P30542); test: Radioligand binding assay; settings: read-out: Percent inhibition of specific radioligand binding
Cannabinoid CB1 = Cannabinoid CB1 (Homo sapiens, UniProt P21554); test: Radioligand binding assay; settings: read-out: Percent inhibition of specific radioligand binding
Chain of Cannabinoid CB1 (P21554 whole entry): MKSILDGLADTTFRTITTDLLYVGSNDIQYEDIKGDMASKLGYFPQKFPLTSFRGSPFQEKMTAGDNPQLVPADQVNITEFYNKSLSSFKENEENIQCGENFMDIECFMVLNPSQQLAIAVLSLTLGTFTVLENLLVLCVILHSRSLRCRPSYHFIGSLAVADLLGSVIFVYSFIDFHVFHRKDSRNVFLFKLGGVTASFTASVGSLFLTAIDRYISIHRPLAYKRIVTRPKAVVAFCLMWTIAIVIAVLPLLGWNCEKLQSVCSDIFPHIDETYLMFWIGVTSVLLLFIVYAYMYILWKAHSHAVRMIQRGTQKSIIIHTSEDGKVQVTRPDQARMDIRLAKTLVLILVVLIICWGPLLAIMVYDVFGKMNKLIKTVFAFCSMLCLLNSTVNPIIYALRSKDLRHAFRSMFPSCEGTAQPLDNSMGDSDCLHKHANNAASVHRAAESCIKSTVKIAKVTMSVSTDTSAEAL

Chain of Adenosine A1 (P30542 whole entry): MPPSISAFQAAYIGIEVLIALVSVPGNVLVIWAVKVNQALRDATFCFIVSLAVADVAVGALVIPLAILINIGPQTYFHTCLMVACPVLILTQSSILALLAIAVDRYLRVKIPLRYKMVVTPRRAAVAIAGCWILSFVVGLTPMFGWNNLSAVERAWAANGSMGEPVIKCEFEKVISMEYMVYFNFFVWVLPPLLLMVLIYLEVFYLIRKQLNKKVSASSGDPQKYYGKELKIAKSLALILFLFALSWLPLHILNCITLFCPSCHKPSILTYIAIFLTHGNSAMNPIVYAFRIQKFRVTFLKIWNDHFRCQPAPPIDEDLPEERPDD
Chain of Prostanoid EP4 (P35408 whole entry): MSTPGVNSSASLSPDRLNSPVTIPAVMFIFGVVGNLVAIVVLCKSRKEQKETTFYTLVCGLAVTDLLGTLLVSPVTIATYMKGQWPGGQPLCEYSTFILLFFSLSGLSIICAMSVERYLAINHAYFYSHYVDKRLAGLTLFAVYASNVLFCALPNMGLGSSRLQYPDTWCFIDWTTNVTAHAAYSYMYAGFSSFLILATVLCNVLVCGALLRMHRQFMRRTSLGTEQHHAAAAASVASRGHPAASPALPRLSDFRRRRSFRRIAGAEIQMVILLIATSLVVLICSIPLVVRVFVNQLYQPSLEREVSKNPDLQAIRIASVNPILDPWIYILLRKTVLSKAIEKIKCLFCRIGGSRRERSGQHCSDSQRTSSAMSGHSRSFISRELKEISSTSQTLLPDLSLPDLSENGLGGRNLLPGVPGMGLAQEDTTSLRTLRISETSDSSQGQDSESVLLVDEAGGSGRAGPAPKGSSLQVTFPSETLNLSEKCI
Chain of Muscarinic M2 (P08172 whole entry): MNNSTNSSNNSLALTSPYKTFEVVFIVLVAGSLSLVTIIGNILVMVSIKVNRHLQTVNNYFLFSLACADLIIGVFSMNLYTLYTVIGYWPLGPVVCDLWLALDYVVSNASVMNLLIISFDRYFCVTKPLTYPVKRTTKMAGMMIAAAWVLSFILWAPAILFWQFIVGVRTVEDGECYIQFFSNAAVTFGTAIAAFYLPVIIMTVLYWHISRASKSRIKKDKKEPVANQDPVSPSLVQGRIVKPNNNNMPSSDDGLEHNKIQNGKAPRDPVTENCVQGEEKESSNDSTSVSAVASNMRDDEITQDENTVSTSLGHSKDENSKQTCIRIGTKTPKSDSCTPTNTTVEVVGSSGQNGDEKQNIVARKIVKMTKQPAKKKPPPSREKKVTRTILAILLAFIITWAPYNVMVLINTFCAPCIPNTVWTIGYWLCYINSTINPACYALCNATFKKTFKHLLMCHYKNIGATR
Chain of Bradykinin B1 (P46663 whole entry): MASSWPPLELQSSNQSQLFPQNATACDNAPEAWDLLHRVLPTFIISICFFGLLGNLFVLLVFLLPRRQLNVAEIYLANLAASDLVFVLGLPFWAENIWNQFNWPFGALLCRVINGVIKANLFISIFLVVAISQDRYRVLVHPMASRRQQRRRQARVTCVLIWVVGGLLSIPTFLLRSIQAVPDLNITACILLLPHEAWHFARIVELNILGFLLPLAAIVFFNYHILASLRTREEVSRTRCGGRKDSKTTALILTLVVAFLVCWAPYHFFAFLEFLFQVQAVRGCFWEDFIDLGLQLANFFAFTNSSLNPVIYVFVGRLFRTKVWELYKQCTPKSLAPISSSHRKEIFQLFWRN
Chain of Adrenergic β1 (P08588 whole entry): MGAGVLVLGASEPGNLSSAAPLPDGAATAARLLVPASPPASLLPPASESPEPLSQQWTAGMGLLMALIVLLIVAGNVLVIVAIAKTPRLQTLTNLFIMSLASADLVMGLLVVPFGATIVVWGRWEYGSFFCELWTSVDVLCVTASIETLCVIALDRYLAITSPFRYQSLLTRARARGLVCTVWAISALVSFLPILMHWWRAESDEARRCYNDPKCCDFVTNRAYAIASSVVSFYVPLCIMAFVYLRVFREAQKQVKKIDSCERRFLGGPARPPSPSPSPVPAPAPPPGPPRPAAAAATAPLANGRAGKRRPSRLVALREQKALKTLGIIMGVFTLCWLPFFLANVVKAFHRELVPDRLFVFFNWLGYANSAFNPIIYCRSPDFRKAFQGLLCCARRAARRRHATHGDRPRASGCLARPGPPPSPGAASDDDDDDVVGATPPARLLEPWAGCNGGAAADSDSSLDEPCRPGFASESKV
Chain of Neuropeptide Y Y2 (P49146 whole entry): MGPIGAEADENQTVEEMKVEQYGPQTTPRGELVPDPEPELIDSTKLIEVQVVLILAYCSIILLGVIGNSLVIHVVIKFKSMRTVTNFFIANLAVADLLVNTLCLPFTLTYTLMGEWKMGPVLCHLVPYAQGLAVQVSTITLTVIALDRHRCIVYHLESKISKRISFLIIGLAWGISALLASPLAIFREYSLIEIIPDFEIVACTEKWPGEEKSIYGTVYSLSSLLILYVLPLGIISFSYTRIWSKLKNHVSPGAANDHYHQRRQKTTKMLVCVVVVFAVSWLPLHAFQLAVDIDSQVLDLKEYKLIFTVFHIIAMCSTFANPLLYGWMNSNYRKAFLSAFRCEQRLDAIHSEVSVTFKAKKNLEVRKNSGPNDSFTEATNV
Chain of Serotonin (5-Hydroxytryptam ine) 5-HT2B (P41595 whole entry): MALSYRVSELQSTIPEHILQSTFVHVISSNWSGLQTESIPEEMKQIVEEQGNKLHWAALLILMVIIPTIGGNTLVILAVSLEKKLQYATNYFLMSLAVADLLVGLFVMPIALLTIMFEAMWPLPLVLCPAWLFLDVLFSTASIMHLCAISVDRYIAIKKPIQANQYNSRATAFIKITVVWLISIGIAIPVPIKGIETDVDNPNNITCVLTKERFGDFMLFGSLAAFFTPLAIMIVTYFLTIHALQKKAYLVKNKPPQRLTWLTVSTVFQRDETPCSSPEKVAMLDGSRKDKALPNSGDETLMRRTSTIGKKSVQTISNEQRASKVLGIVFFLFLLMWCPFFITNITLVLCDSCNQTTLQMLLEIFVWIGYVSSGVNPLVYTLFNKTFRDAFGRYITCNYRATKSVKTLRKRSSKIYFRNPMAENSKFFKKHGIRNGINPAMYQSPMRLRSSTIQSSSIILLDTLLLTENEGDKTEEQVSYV
Chain of CYP2C19 (P33261 whole entry): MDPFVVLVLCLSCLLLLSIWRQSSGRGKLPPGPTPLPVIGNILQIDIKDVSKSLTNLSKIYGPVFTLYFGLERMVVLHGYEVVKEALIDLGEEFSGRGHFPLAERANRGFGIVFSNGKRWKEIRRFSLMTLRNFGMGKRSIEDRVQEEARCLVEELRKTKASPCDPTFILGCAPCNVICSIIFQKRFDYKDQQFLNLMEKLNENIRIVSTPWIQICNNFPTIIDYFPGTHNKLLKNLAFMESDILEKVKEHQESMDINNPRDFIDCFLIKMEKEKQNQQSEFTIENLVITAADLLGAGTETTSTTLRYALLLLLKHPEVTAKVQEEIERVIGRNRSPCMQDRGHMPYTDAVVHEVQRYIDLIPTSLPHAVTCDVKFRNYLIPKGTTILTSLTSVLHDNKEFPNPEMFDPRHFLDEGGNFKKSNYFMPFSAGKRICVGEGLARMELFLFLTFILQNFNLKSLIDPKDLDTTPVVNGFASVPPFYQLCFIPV
Chain of Endothelin ETB (P24530 27-442): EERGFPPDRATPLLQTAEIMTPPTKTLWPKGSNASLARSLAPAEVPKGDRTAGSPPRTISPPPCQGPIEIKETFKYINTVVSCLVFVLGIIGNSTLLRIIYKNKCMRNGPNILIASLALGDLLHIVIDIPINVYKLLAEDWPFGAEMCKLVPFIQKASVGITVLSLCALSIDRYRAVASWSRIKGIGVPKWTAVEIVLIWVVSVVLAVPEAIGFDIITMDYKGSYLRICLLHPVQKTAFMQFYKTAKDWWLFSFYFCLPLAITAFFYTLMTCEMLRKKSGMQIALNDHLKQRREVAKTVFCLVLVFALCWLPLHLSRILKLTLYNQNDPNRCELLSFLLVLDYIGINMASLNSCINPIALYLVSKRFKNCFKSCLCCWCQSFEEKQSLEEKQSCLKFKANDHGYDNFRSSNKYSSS

CC(C)Cn1cnc2c(N)nc3ccccc3c21 [IMQ, imiquimod, reference compound]
inhibition at 10 µM (Estrogen ERa): 0% | Percent inhibition of specific radioligand binding [1]: 37% | inhibition at 10 µM (Calcium Channel N-Type): 2% | inhibition at 10 µM (Glutamate, NMDA, Glycine): -6% | concentration at 1 h [2]: 0.139 ± 0.0612 ng/mL | inhibition at 10 µM (Neuropeptide Y Y2): 6% | Percent inhibition of specific radioligand binding (GABAA, Muscimol, Central): 19% | inhibition at 10 µM (Dopamine D1): 66% | inhibition at 10 µM (Bradykinin B1): 4% | inhibition at 10 µM (Transporter, GABA): 2% | Percent inhibition of specific radioligand binding (Purinergic P2x): −7% | inhibition at 10 µM (Histamine H3): 4% | inhibition at 45 min, 10 µM (CYP2D6): 29% | IFN-γ secretion in human PBMC (human PBMC): does not stimulate IFN-γ secretion | Percent inhibition of specific radioligand binding (Glutamate, Kainate): −8% | Percent inhibition of specific radioligand binding [3]: 4% | inhibition at 30 min, 10 µM (CYP1A2): 66% | inhibition at 10 µM [4]: 30% | Percent inhibition of specific radioligand binding (Thyroid Hormone): −5% | inhibition at 10 µM [5]: 10% | Percent inhibition of specific radioligand binding (Nicotinic Acetylcholine): 3% | inhibition at 10 µM (Dopamine D4.2): 2% | inhibition at 10 µM (Opiate 51 (OP1, DOP)): 5% | Percent inhibition of specific radioligand binding (Imidazoline I2, Central): 57% | inhibition at 60 min, 10 µM (hERG potassium channel): 45% | inhibition at 30 min, 10 µM (CYP3A4): 1% | Percent inhibition of specific radioligand binding [6]: 4% | inhibition at 45 min, 10 µM (CYP2C19): 10% | Percent inhibition of specific radioligand binding (Potassium Channel [KATP]): −5% | inhibition at 10 µM [7]: 2% | MTD at 8 days ([8]; C57BL/6, mouse, in vivo, iv): 15 mg/kg | MTD (molar) ([8]; C57BL/6 mice, intravenous administration): approximately 62.5 μmoles/kg | Body weight change after a single intravenous injection of the MTD ([8]; Tlr7−/− or Myd88−/− mice): did not result in body weight changes | Body weight change after a single intravenous injection of the MTD ([8]; WT mice): did not result in body weight changes | inhibition at 10 µM [9]: -1% | inhibition at 10 µM (Interleukin IL-1): 5% | inhibition at 10 µM (Bradykinin B2): -1% | inhibition at 10 µM [10]: 7% | inhibition at 10 µM [11]: 19% | Percent inhibition of specific radioligand binding (Glutamate, NMDA, Agonism): 2% | inhibition at 10 µM (Adrenergic β1): 19% | inhibition at 10 µM (Prostanoid EP4): 6% | Percent inhibition of specific radioligand binding (Phorbol Ester): 21% | Percent inhibition of specific radioligand binding [12]: −14% | inhibition at 10 µM [13]: 45% | inhibition at 10 µM (Glucocorticoid): -2% | inhibition at 45 min, 10 µM (CYP2C9): 3% | inhibition at 10 µM [14]: 7% | inhibition at 10 µM (Muscarinic M2): 3% | inhibition at 10 µM (Endothelin ETB): 0% | Percent inhibition of specific radioligand binding (Purinergic P2,): 10% | inhibition at 10 µM (Adenosine A1): 50% | inhibition at 10 µM (Cannabinoid CB1): -4%
